From ChEMBL document CHEMBL3272236, “Synthesis and evaluation of 1,omega-diaryl-l,omega-alkanediamines related to the fibrinolytic bis(tetrahydroisoquinolines) and bis(benzylamines)” (1976)

Test system: Rattus norvegicus
Assay: Fibrinolytic activity in ip dosed rat assessed as blood clot lysis for 4 hrs
Type: functional
Details: not given

Q: `COc1ccc(C(N)CCCCCCCC2NCCc3cc(OC)c(OC)cc32)cc1OC.Cl` (racemic; 31b) was tested. Which ED50 did it give?
A: 0.5 mg/kg

Same assay, conditions: Rattus norvegicus, Blood clot, ip, 4 h; read-out: ED50

Q: With `COc1cc2c(cc1OC)C(CCCCC1NCCCc3cc(OC)c(OC)cc31)NCCC2.Cl` (centres undefined) as the molecule, how does the ED50 read?
A: 0.7 mg/kg

Q: `COc1ccc(C(N)CCCCCCCC2NCCc3cc(OC)c(OC)cc32)cc1OC.Cl` (racemic; 31a) was tested. Which ED50 did it give?
A: 0.7 mg/kg

Q: How did the ED50 turn out when `COc1cc2c(cc1OC)C(CCCCC1NCCc3cc(OC)c(OC)cc31)NCC2.Cl` (centres undefined) was run?
A: 0.3 mg/kg

Q: Which ED50 does the source give for `COc1ccc2[nH]c3c(c2c1)CCNC3CCCCC1NCCc2c1[nH]c1ccc(OC)cc21.Cl` (centres undefined) here?
A: 6 mg/kg

Q: How did the ED50 turn out when `COc1ccc2[nH]c3c(c2c1)CCNC3CCCCCCCC1NCCc2c1[nH]c1ccc(OC)cc21.Cl` (centres undefined) was run?
A: 2 mg/kg

Q: With `COc1ccc(C(N)CCCCC(N)c2ccc(OC)c(OC)c2)cc1OC.Cl` (centres undefined) as the molecule, how does the ED50 read?
A: 0.4 mg/kg

Q: How did the ED50 turn out when `COc1cc(CCCCCCc2cc(OC)c(OC)cc2C(C)N)c(C(C)N)cc1OC.Cl` (centres undefined) was run?
A: 4 mg/kg

Q: Which ED50 does the source give for `COc1ccc(C(N)CCCCC2NCCc3cc(OC)c(OC)cc32)cc1OC.Cl` (centres undefined) here?
A: 0.9 mg/kg

Q: With `COc1ccc2c(c1)CCNC2CCCCCCCC1NCCc2cc(OC)ccc21.Cl` (centres undefined) as the molecule, how does the ED50 read?
A: 6 mg/kg

Q: Which ED50 does the source give for `COc1ccc2c(c1)CCNC2CCCCC1NCCc2cc(OC)ccc21.Cl` (centres undefined) here?
A: 2 mg/kg

Q: Which ED50 does the source give for `COc1ccc(C(N)CCCCCCC2NCCc3cc(OC)c(OC)cc32)cc1OC.Cl` (centres undefined) here?
A: 1 mg/kg

Q: Which ED50 does the source give for `NCCc1c[nH]c2ccc(O)cc12` [SEROTONIN] here?
A: 1 mg/kg

Q: With `COc1ccc(CC(N)CCCCC(N)Cc2ccc(OC)c(OC)c2)cc1OC.Cl` (centres undefined) as the molecule, how does the ED50 read?
A: 15 mg/kg
